Biological target: T1, TGF-β1 (Homo sapiens, UniProt P01137)
T1 construct: full length mature TGF-β1 is 112 amino acids in length
Assay: GAG-binding plate assay
Details: wells coated with 5 μg/ml GAG; TGF-β1 100, 200 or 400 ng/ml
Method: GAGs are immobilized in each well and then challenged with TGF-β1 according to the manufacturer's instructions. Briefly, triplicate wells are first pre-coated with 5 μg/ml of heparin, HS^PM, HS16^+ve or HS16^−ve in standard assay buffer (SAB: 100 mM NaCl, 50 mM sodium acetate, 0.2% v/v Tween 20, pH 7.2), and then incubated overnight at room temperature. The plates are next washed carefully three times with SAB, blocked with 250 μl of blocking solution (0.4% w/v fish skin gelatine, Sigma-Aldrich, in SAB) and incubated for 1 h at 37° C. TGF-β1 was then dissolved in blocking solution at a concentration of 100, 200, or 400 ng/ml. The plates are washed three times with SAB and each dilution of protein (200 μl) is dispensed into triplicate wells and incubated for 2 h at 37° C., rinsed with SAB and 200 μl of 750 ng/ml monoclonal mouse anti-TGF-β1 antibody (MAB2401, R&D Systems) added in blocking solution. Plates are then incubated for 1 h at 37° C., washed with SAB, and 200 μl of 1 μg/ml polyclonal goat anti-mouse biotinylated antibody (ab6788, Abcam) added in blocking solution. Again, plates are incubated for 1 h at 37° C., washed with SAB, and 200 μl of 220 ng/ml ExtrAvidin AP (Sigma-Aldrich) is added in blocking solution, incubated for 30 min at 37° C., and then rinsed with SAB. Finally, 200 μl of development reagent (SigmaFAST p-Nitrophenyl phosphate, Sigma-Aldrich) is added, incubated at 37° C. for 40 min and read at 405 nm within 1 h.
To determine the ability of TGF-β1 to bind to heparin, we utilized positively-charged GAG-binding plates (Iduron) as a capture substrate. GAGs were immobilized in each well and then challenged with TGF-β1 according to the manufacturer's instructions. Briefly, triplicate wells were first pre-coated with 5 μg/ml of full length heparin, size-fractionated heparin (dp14, 16, 18, 20, 22 and 24) or selectively […] heparin prepared in standard assay buffer (SAB: 100 mM NaCl, 50 mM sodium acetate, 0.2% v/v Tween 20, pH 7.2), and then incubated overnight at room temperature. The plates were next washed carefully three times with SAB, blocked with 250 μl of blocking solution (0.4% w/v fish skin gelatine, Sigma-Aldrich, in SAB) and incubated for 1 h at 37° C. TGF-β1 was then dissolved in blocking solution at a concentration of 100, 200, or 400 ng/ml. The plates were washed three times with SAB and each dilution of protein (200 μl) was dispensed into triplicate wells and incubated for 2 h at 37° C., rinsed with SAB and 200 μl of 750 ng/ml monoclonal mouse anti-TGF-β1 antibody (MAB2401, R&D Systems) added in blocking solution. […] Finally, 200 μl of development reagent (SigmaFAST p-Nitrophenyl phosphate, Sigma-Aldrich) was added, incubated at 37° C. for 40 min and read at 405 nm within 1 h.

T1 sequence (P01137 279-390 limits assumed): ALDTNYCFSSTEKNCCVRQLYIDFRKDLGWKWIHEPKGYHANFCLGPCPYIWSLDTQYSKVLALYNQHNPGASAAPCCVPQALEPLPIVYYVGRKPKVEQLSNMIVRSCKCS

heparin
TGF-β1 binding to immobilized GAG: bound in a dose-dependent manner

Reference: US10596296B2, “Heparan sulphates” (Agency for Science, Technology and Research, priority 2014, dated 2020)
